Values of other authors as cited in US20030224036A1, “Hla class I a2 tumor associated antigen peptides and vaccine compositions” (priority 1999, published 2003).

Tested on: PBMC of cervical cancer patients

Substance: aKXVAAWTLKAAa-NH2 [PADRE, a=D-alanine, X=cyclohexylalanine]
- responding patients (95% interval 10-65%): 33%
- safety in patients (recurrent or residual cervical carcinoma): favorable safety profile
